Measurements from ChEMBL document CHEMBL5316298, “Discovery of Amphiphilic Xanthohumol Derivatives as Membrane-Targeting Antimicrobials against Methicillin-Resistant Staphylococcus aureus” (J Med Chem, 2023).
Active and inactive are the calls of the source.

Key:
[1] = tested on: Staphylococcus aureus; assay: Induction of drug resistance in Staphylococcus aureus ATCC 29213 assessed as increase in MIC at 0.5 times MIC measured for 20 passages; type: functional
[2] = tested on: Staphylococcus aureus; assay: Antibacterial activity against methicillin-resistant Staphylococcus aureus clinical isolate 1 incubated for 16 to 18 hrs by CLSI-based microbroth dilution method; type: functional; settings: time 16-18 hrs
[3] = tested on: Staphylococcus aureus; assay: Antibacterial activity against methicillin-resistant Staphylococcus aureus 3 infected in KM mouse assessed as reduction in inflammatory cells in subcutaneous tissue at 5 to 10 mg/kg administered into skin infection site measured after 24 hrs by H and E staining based analysis; type: functional, organism-based; settings: dose 5-10 mg/kg
[4] = tested on: Cell membrane; assay: Disruption of membrane integrity in methicillin-resistant Staphylococcus aureus 3 assessed as appearance of ruptured cell surface at 16 ug/ml incubated for 240 mins by SEM analysis; type: subcellular; settings: dose 16.0 µg/ml
[5] = Toxicity in KM mouse assessed as effect on RBC count at 20 mg/kg, sc administered into middle dorsum and measured after 24 hrs by routine blood test; type: organism-based, Erythrocyte; settings: in vivo
[6] = tested on: Staphylococcus aureus; assay: Bactericidal activity against methicillin-resistant Staphylococcus aureus 3 incubated for 6 hrs in presence of 50% sheep plasma; type: functional, organism-based
[7] = tested on: Cell membrane; assay: Induction of membrane depolarization in methicillin-resistant Staphylococcus aureus 3 assessed as increase in fluorescence intensity measured every 2 mins for 20 mins by SYTOX-green dye based fluorescence assay; type: subcellular; settings: dose 8-32 µg/ml
[8] = tested on: Cell membrane; assay: Disruption of membrane integrity in methicillin-resistant Staphylococcus aureus 3 assessed as increase in DNA leakage at 1 to 8 times MIC incubated for 4 hrs by microspectrophotometer analysis; type: subcellular
[9] = tested on: Staphylococcus aureus; assay: Anti-MRSA activity against methicillin-resistant Staphylococcus aureus 3 incubated for 16 to 18 hrs in presence of 64 ug/ml phosphatidylglycerol by checkerboard broth dilution method (reference value: 1 ug/ml); type: functional; settings: time 16-18 hrs
[10] = tested on: Staphylococcus aureus; assay: Induction of ROS production in methicillin-resistant Staphylococcus aureus 3 assessed as increase in intracellular ROS level incubated for 40 mins by DCFH-DA dye based fluorescence analysis; type: functional, organism-based; settings: dose 0-64 µg/ml
[11] = tested on: Staphylococcus aureus; assay: Antibacterial activity against methicillin-resistant Staphylococcus aureus 3 infected in KM mouse assessed as reduction in abscesses inside the skin at 5 mg/kg administered into skin infection site measured after 24 hrs; type: functional, organism-based
[12] = tested on: Cell membrane; assay: Induction of membrane depolarization in methicillin-resistant Staphylococcus aureus 3 assessed as fold increase in fluorescence intensity at 8 to 16 ug/ml measured after 20 mins by DiSC35 dye-based fluorescence assay relative to control; type: subcellular; settings: dose 8-16 µg/ml
[13] = tested on: Staphylococcus aureus; assay: Anti-MRSA activity against methicillin-resistant Staphylococcus aureus 3 incubated for 16 to 18 hrs in presence of 64 ug/ml cardiolipin by checkerboard broth dilution method (reference value: 1 ug/ml); type: functional; settings: time 16-18 hrs
[14] = Toxicity in KM mouse infected with methicillin-resistant Staphylococcus aureus 3 assessed as histopathological abnormalities in spleen at 5 to 10 mg/kg administered into skin infection site measured after 24 hrs by H and E staining based analysis; type: organism-based; settings: in vivo, topical_or_ocular, dose 5-10 mg/kg
[15] = Toxicity in KM mouse infected with methicillin-resistant Staphylococcus aureus 3 assessed as lung damage at 5 to 10 mg/kg administered into skin infection site measured after 24 hrs by H and E staining based analysis; type: organism-based; settings: in vivo, topical_or_ocular, dose 5-10 mg/kg
[16] = tested on: Staphylococcus aureus; assay: Anti-MRSA activity against methicillin-resistant Staphylococcus aureus 3 incubated for 16 to 18 hrs in presence of 0 to 64 ug/ml phosphatidylethanolamine by checkerboard broth dilution method; type: functional, organism-based; settings: time 16-18 hrs
[17] = tested on: Staphylococcus aureus; assay: Antibacterial activity against methicillin-resistant Staphylococcus aureus 3 infected in KM mouse assessed as reduction in bacterial load at infection site by measuring colony forming units at 10 mg/kg administered into skin infection site measured after 24 hrs; type: functional
[18] = Toxicity in KM mouse infected with methicillin-resistant Staphylococcus aureus 3 assessed as histopathological abnormalities in heart at 5 to 10 mg/kg administered into skin infection site measured after 24 hrs by H and E staining based analysis; type: organism-based; settings: in vivo, topical_or_ocular, dose 5-10 mg/kg
[19] = Toxicity in KM mouse assessed as effect on platelet count at 20 mg/kg, sc administered into middle dorsum and measured after 24 hrs by routine blood test; type: organism-based; settings: in vivo
[20] = Toxicity in KM mouse assessed as pathological changes in liver at 20 mg/kg, sc administered into middle dorsum and measured after 24 hrs by H and E staining based analysis; type: organism-based; settings: in vivo
[21] = tested on: Staphylococcus aureus; assay: Antibacterial activity against methicillin-resistant Staphylococcus aureus 3 infected in KM mouse assessed as reduction in bacterial load at infection site at 5 mg/kg administered into skin infection site measured after 24 hrs relative to control; type: functional; parameters: scale not given: the % may be the effect or the level left
[22] = Toxicity in KM mouse assessed as effect on creatinine level at 20 mg/kg, sc administered into middle dorsum and measured after 24 hrs by routine blood test; type: organism-based; settings: in vivo
[23] = tested on: Staphylococcus aureus; assay: Bactericidal activity against methicillin-resistant Staphylococcus aureus 3 at 8 times MIC measured at 2 hrs by plate colony counting method; type: functional, organism-based
[24] = tested on: Staphylococcus aureus; assay: Antibacterial activity against methicillin-resistant Staphylococcus aureus 3 infected in KM mouse assessed as appearance of smoother dorsal skin at 10 mg/kg administered into skin infection site measured after 24 hrs; type: functional, organism-based
[25] = Toxicity in KM mouse assessed as effect on hematocrit level at 20 mg/kg, sc administered into middle dorsum and measured after 24 hrs by routine blood test; type: organism-based; settings: in vivo
[26] = tested on: Staphylococcus aureus; assay: Antibacterial activity against methicillin-resistant Staphylococcus aureus 3 infected in KM mouse assessed as reduction in abscesses on dorsal surface of skin at 5 mg/kg administered into skin infection site measured after 24 hrs; type: functional, organism-based
[27] = tested on: Staphylococcus aureus; assay: Anti-MRSA activity against methicillin-resistant Staphylococcus aureus 3 incubated for 16 to 18 hrs in presence of 0 to 32 ug/ml cardiolipin by checkerboard broth dilution method; type: functional; settings: time 16-18 hrs
[28] = tested on: Staphylococcus aureus; assay: Antibacterial activity against methicillin-resistant Staphylococcus aureus clinical isolate 8 incubated for 16 to 18 hrs by CLSI-based microbroth dilution method; type: functional; settings: time 16-18 hrs
[29] = Hemolytic activity in sheep erythrocytes incubated for 1 hr by absorbance based analysis; type: toxicity, cell-based, Ovis aries, Erythrocyte
[30] = tested on: Staphylococcus aureus; assay: Antibacterial activity against methicillin-resistant Staphylococcus aureus clinical isolate 7 incubated for 16 to 18 hrs by CLSI-based microbroth dilution method; type: functional; settings: time 16-18 hrs
[31] = tested on: Staphylococcus aureus; assay: Antibacterial activity against methicillin-resistant Staphylococcus aureus clinical isolate 4 incubated for 16 to 18 hrs by CLSI-based microbroth dilution method; type: functional; settings: time 16-18 hrs
[32] = tested on: Staphylococcus aureus; assay: Antibacterial activity against methicillin-resistant Staphylococcus aureus clinical isolate 5 incubated for 16 to 18 hrs by CLSI-based microbroth dilution method; type: functional; settings: time 16-18 hrs
[33] = Toxicity in KM mouse assessed as mortality at 5 to 80 mg/kg, sc administered into middle dorsum and measured after 24 hrs; type: organism-based; settings: in vivo, dose 5-80 mg/kg
[34] = Toxicity in KM mouse infected with methicillin-resistant Staphylococcus aureus 3 assessed as heart damage at 5 to 10 mg/kg administered into skin infection site measured after 24 hrs by H and E staining based analysis; type: organism-based; settings: in vivo, topical_or_ocular, dose 5-10 mg/kg
[35] = Toxicity in KM mouse assessed as effect on mean corpuscular volume at 20 mg/kg, sc administered into middle dorsum and measured after 24 hrs by routine blood test; type: organism-based; settings: in vivo
[36] = tested on: Cell membrane; assay: Disruption of membrane integrity in methicillin-resistant Staphylococcus aureus 3 assessed as increase in protein leakage at 1 to 8 times MIC incubated for 4 hrs by microspectrophotometer analysis; type: subcellular

CCCN(CCC)C(=O)C[N+](C)(C)CCCCOc1ccc(/C=C/C(=O)c2c(OC)cc3c(c2O)C=CC(C)(C)O3)cc1.[Br-]
338 µg/mL: HC50 at 1 h [29]
inactive: Activity [1] | Activity [11] | Activity [26]
Non-Toxic: Activity [5] | Activity [14] | Activity [15] | Activity [18] | Activity [19] | Activity [20] | Activity [22] | Activity [25] | Activity [33] | Activity [34] | Activity [35]
6: fold change (FC) [12]
active: Activity [3] | Activity [4] | Activity [6] | Activity [7] Dose-Dependent Effect | Activity [8] Dose-Dependent Effect | Activity [10] | Activity [16] | Activity [23] | Activity [24] | Activity [36] Dose-Dependent Effect
4.5 log10CFU/g: Activity [17]
1 µg/mL: MIC [27] | MIC [32]
99.905%: Activity [21]
32 µg/mL: MIC [9] | MIC [13]
2 µg/mL: MIC [2] | MIC [28] | MIC [30] | MIC [31]
